Source: patent publication US8609680B2, “2,3-dihydro-1H-inden-1-yl-2,7-diazaspiro[3.5] nonane derivatives” (Pfizer Inc., priority 2010, dated 2013)
pIC50, pKi: −log10 of the molar value. Read-outs that look alike come from different tables or passages of the source.

Experiments:
[1] = target: T1, human GHSR1a (Homo sapiens, UniProt Q92847); experiment: Human Ghrelin Functional Assay (DELFIA GTP-binding assay); type: biochemical; conditions: GTP-Europium exchange, human GHSR1a membranes, with and without ghrelin at EC80
T1 construct: expressed in transfected cells; host or cells: HEK293 Tetracycline-Inducible cell line, used as membranes
Procedure: Human Ghrelin Functional Assay
To measure the ability of test compounds in the present invention to modulate the activity of human GHSR1a (agonize, antagonize, partially agonize, inversely agonize), a DELFIA GTP-binding assay (Perkin Elmer, AD0260 and AD0261) is performed. The assay monitors the ligand-dependent exchange of GDP for GTP. GPCR activation results in an increase in fluorescence as receptor-bound GDP is replaced by Europium-labeled GTP.
Ghrelin functional assays are performed in a final volume of 39.5 μl containing 720 ng human GHSR1a (HEK293 Tetracycline-Inducible cell line expressing the human growth secretagogue receptor la, prepared as membranes), 9 nM GTP-Europium and varying concentrations of test compound or vehicle. To test for receptor antagonism, membranes are incubated in the presence of agonist ghrelin (Anaspec, 24158) at the EC80 concentration, plus test compound or vehicle.
Briefly, test compounds are prepared at room temperature in 384-well plates (Matrix, 4340). […] Samples are then transferred as 6 μl to 384-well filter plates (Pall, 5071) containing 30 μl of 24 μg/ml hGHSR1a membrane and 0.35 mg/ml saponin (Perkin Elmer, AD0261) in basal buffer.
The mixture is incubated 24 minutes at room temperature with gentle shaking, followed by the addition of 3.5 μl of 100 nM GTP-Europium in 50 mM HEPES, pH 7.4. Samples are shielded from light and incubated for 90 minutes further at room temperature with gentle shaking. The reactions are suctioned dry with vacuum, washed three times with 75 μl ice cold 1× GTP Wash Solution (Perkin Elmer, AD0261), and immediately read on the Envision 2101 Multilabel Reader (Perkin Elmer) using excitation filter 320 nm and emission filter 615 nm.

[2] = target: T1, human GHSR1a; experiment: Human Ghrelin SPA Binding Assay
Description: The SPA format was utilized for high throughput screening of test compounds and filter binding served for more comprehensive binding characterization.
Human Ghrelin SPA Binding Assay

[3] = SPA format, [125I] ghrelin displacement, human GHSR1a membranes, Ki=IC50/(1+[ligand]/Kd)

T1 sequence (Q92847 whole entry): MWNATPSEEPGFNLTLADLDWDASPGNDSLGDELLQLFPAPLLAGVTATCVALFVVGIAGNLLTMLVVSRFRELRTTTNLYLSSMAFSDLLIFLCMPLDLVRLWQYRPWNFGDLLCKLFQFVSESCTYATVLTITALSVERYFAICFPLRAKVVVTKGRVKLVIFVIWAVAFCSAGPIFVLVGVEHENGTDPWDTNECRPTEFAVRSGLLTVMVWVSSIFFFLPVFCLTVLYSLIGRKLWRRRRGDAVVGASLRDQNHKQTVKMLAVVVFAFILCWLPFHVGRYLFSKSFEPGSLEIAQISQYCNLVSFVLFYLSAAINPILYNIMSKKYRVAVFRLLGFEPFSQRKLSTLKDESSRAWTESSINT

COc1ccc(CC(=O)N2CCC3(CC2)CN([C@@H]2CCc4cc(-c5ncco5)ccc42)C3)cc1 [Example 3AD]
functional comment [1]: inverse agonist | pIC50 [2]: 7.71 | pKi [2]: 7.81

Cc1cc(C)nc(-c2ccc3c(c2)CC[C@H]3N2CC3(CCN(C(=O)Cc4cn5nc(C)sc5n4)CC3)C2)n1 [Example 3AL]
functional comment [1]: inverse agonist | pIC50 [2]: 8.11 | pKi [2]: 8.16

O=C(Cc1ccc(C2CC2)cn1)N1CCC2(CC1)CN([C@@H]1CCc3cc(-c4ncccn4)ccc31)C2 [Example 3AF]
functional comment [1]: inverse agonist | pIC50 [2]: 8.13 | pKi [2]: 8.21

Cc1cc(-c2ccc3c(c2)CC[C@H]3N2CC3(CCN(C(=O)Cc4cn5c(C)c(C)sc5n4)CC3)C2)ncn1 [Example 3AR]
functional comment [1]: inverse agonist | pIC50 [2]: 7.47 | pKi [2]: 7.52

Cc1ccn2cc(CC(=O)N3CCC4(CC3)CN([C@@H]3CCc5cc(-n6nccn6)ccc53)C4)nc2c1 [Example 6C]
functional comment [1]: inverse agonist | pIC50 [2]: 7.43 | pKi [2]: 7.49

COc1ccc(CC(=O)N2CCC3(CC2)CN([C@@H]2CCc4cc(-n5nccn5)ccc42)C3)c(NC(C)=O)c1 [Example 6H]
functional comment [1]: inverse agonist | pIC50 [2]: 7.66 | pKi [2]: 7.71

COc1ccc(CC(=O)N2CCC3(CC2)CN(C2CCc4cc(-c5cnccn5)ccc42)C3)nc1 (racemic) [Example 2H]
functional comment [1]: inverse agonist | pIC50 [2]: 7.04 | pKi [2]: 6.66

COc1ccc(CC(=O)N2CCC3(CC2)CN(C2CCc4cc(-c5cc(OC)ncn5)ccc42)C3)nc1 (racemic) [Example 2F]
functional comment [1]: inverse agonist | pIC50 [2]: 7.44 | pKi [2]: 7.30

COc1ccc(CC(=O)N2CCC3(CC2)CN(C2CCc4cc(-c5cc(C#N)ccn5)ccc42)C3)nc1 (racemic) [Example 2C]
functional comment [1]: inverse agonist | pIC50 [2]: 7.86 | pKi [2]: 7.42

Cc1nn2cc(CC(=O)N3CCC4(CC3)CN([C@@H]3CCc5cc(-c6ccc(C(N)=O)nc6)ccc53)C4)nc2s1 [Example 10F]
functional comment [1]: inverse agonist | pIC50 [2]: 7.80 | pKi [2]: 7.85

Cc1ccc(CC(=O)N2CCC3(CC2)CN([C@@H]2CCc4cc(-n5nccn5)ccc42)C3)nc1 [Example 5C]
functional comment [1]: inverse agonist | pKi [2, 3]: 7.98

Cc1ccc(CC(=O)N2CCC3(CC2)CN([C@@H]2CCc4cc(-c5ncccn5)ccc42)C3)nc1 [Example 3I]
functional comment [1]: inverse agonist | pIC50 [2]: 7.51 | pKi [2, 3]: 7.56

COc1ccc(CC(=O)N2CCC3(CC2)CN(C2CCc4cc(-c5ccc(OC)cn5)ccc42)C3)nc1 (stereo not shown) [Example 2A, 7-[(5-Methoxypyridin-2-yl)acetyl]-2-[5-(5-methoxypyridin-2-yl)-2,3-dihydro-1H-inden-1-yl]-2,7-diazaspiro[3.5]nonane]
functional comment [1]: inverse agonist | pIC50 [2]: 7.64 | pKi [2]: 7.04

Cc1cn2cc(CC(=O)N3CCC4(CC3)CN([C@@H]3CCc5cc(-n6nccn6)ccc53)C4)nc2s1 [Example 6F]
functional comment [1]: inverse agonist | pIC50 [2]: 8.22 | pKi [2]: 8.29

Cc1cc(-c2ccc3c(c2)CC[C@H]3N2CC3(CCN(C(=O)Cc4cn5nc(C)sc5n4)CC3)C2)ncn1 [Example 3Z, 7-[(2-methylimidazo[2,1-b][1,3,4]thiadiazol-6-yl)acetyl]-2-[(1R)-5-(6-methylpyrimidin-4-yl)-2,3-dihydro-1H-inden-1-yl]-2,7-diazaspiro[3.5]nonane]
functional comment [1]: inverse agonist | pIC50 [2]: 8.17 | pKi [2]: 8.22

COc1ccc(CC(=O)N2CCC3(CC2)CN(C2CCc4cc(-c5cccc(C)n5)ccc42)C3)nc1 (racemic) [Example 2J]
functional comment [1]: inverse agonist | pIC50 [2]: 7.66

Cc1cc(-c2ccc3c(c2)CC[C@H]3N2CC3(CCN(C(=O)Cc4cn5nc(C)sc5n4)CC3)C2)nc(C)n1 [Example 3AO]
functional comment [1]: inverse agonist | pIC50 [2]: 7.77 | pKi [2]: 7.82
